Data on 13 molecules can be found in BindingDB's records for doi:10.1016/s0960-894x(99)00093-1 (Sankyo, 1999).

Each structure is given as a SMILES string.

In experiment [1] the target is T1, Substance-K receptor (Cavia porcellus, UniProt Q64077).
T1 sequence (Q64077 whole entry): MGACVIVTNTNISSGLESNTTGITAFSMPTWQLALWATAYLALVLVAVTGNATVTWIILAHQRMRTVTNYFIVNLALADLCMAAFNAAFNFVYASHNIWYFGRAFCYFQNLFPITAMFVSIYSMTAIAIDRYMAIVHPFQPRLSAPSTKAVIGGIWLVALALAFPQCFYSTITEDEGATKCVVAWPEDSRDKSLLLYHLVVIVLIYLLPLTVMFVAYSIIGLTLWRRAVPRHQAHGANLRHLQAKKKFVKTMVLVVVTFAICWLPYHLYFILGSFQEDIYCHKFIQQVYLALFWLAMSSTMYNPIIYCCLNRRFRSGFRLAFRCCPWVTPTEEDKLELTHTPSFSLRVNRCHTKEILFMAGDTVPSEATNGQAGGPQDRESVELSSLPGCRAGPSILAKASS
Description: ChEBML_142706. The source says:
(§1) Inhibitory activity against Neurokinin 2 (NK2) receptor from guinea pig ileum

Experiment [2] has as its target T1, Substance-K receptor. The description is as §1.
Experiment [3] concerns the target T2, Substance-P receptor (Cavia porcellus, UniProt P30547). The experiment is described as follows: ChEBML_144914. From the text:
(§2) Inhibitory activity against Neurokinin 1 (NK1) receptor from guinea pig lung

Experiment [4] addresses T2, Substance-P receptor. Described as §2.

What is called IC50 is the concentration that inhibits the measured activity by half.

T2 sequence (P30547 whole entry): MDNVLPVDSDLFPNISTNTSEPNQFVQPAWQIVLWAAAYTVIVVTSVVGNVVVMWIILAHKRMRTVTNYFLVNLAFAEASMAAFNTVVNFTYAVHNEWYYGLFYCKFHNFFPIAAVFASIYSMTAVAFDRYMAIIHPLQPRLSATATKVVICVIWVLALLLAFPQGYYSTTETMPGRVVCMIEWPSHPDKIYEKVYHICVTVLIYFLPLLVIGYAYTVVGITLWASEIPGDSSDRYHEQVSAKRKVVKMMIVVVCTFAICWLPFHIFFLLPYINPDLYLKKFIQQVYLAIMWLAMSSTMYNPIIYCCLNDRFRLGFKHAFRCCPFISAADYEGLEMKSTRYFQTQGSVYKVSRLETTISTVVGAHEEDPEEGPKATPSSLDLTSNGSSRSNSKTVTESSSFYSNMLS

As to `COc1cc(C(=O)N2CO[C@](CCN3CCC4(CC3)c3ccccc3C[S+]4[O-])(c3ccc(Cl)c(Cl)c3)C2)cc(OC)c1OC` (some centres undefined), on Substance-K receptor [1], the 50% inhibitory concentration (IC50) stood at 7.5 nM.
The same measure, in the same setting: with `COc1cc(C(=O)N2CO[C@](CCN3CCC4(CC3)C(=O)N(C)c3ccccc34)(c3ccc(Cl)c(Cl)c3)C2)cc(OC)c1OC` the figure was 34 nM; with `COc1cc(C(=O)N2CO[C@](CCN3CCC(C(N)=O)(c4ccccc4)CC3)(c3ccc(Cl)c(Cl)c3)C2)cc(OC)c1OC`, 91 nM.
`COc1cc(C(=O)N2CO[C@](CCN3CCC4(CC3)C[S+]([O-])c3ccccc34)(c3ccc(Cl)c(Cl)c3)C2)cc(OC)c1OC` (some centres undefined): the half-maximal inhibitory concentration (IC50) against Substance-K receptor [2] was found to be 7.3 nM.
In the case of `COc1cc(C(=O)N2CO[C@](CCN3CCC4(CC3)c3ccccc3C[S+]4[O-])(c3ccc(F)c(F)c3)C2)cc(OC)c1OC` (some centres undefined), it took 16 nM to reach half-maximal inhibition at Substance-P receptor [3] (IC50).
`COc1cc(C(=O)N2CO[C@](CCN3CCC4(CC3)NC(=O)Cc3ccccc34)(c3ccc(F)c(F)c3)C2)cc(OC)c1OC` had an IC50 on Substance-P receptor [3] of 28 nM.
On the same count and under the same terms, under `COc1cc(C(=O)N2CO[C@](CCN3CCC(C(=O)N(C)C)(c4ccccc4)CC3)(c3ccc(F)c(F)c3)C2)cc(OC)c1OC` stands 27 nM.
At Substance-P receptor [4], `COc1cc(C(=O)N2CO[C@](CCN3CCC(C(N)=O)(c4ccccc4)CC3)(c3ccc(Cl)cc3)C2)cc(OC)c1OC` gave an IC50 of 27 nM. This lies in the double-digit nanomolar range.
At Substance-K receptor [2], `COc1cc(C(=O)N2CO[C@](CCN3CCC(C(=O)N(C)C)(c4ccccc4)CC3)(c3ccc(Cl)cc3)C2)cc(OC)c1OC` returned a concentration for half-maximal inhibition (IC50) of 4.7 nM.
For `COc1cc(C(=O)N2CO[C@](CCN3CCN(c4ccc(C(C)=O)cc4)CC3)(c3ccc(Cl)c(Cl)c3)C2)cc(OC)c1OC`, the IC50 against Substance-K receptor [2] was 74 nM; at Substance-P receptor [4], 18 nM.
`COc1cc(C(=O)N2CO[C@](CCN3CCC(C(=O)N4CCOCC4)(c4ccccc4)CC3)(c3ccc(Cl)c(Cl)c3)C2)cc(OC)c1OC`: the IC50 on Substance-K receptor [2] came out at 52 nM. This counts as double-digit nanomolar.
In turn, `COc1cc(C(=O)N2CO[C@](CCN3CCC(C(N)=O)(c4ccccc4)CC3)(c3ccc(F)c(F)c3)C2)cc(OC)c1OC` came in with a 50% inhibitory concentration (IC50) on Substance-P receptor [4] of 10 nM.
`COc1cc(C(=O)N2CO[C@](CCN3CCC(C(N)=O)(c4ccccc4)CC3)(c3ccc(F)cc3)C2)cc(OC)c1OC` came in with an IC50 on Substance-P receptor [4] of 27 nM. Compared with the last molecule, the IC50 is about 2.7-fold higher.
